From patent US7612034B2, “Treatment of subnormal bone mineral density” (Genelabs Technologies, Inc., priority 1999, dated 2009)

Legend:
[1] = Stability of DHEA polymorph preparations under ambient conditions; assay type: physicochemical
[2] = Oral uptake and absorption of DHEA polymorph preparations; conditions: oral administration
ovarectomized rats = conditions: administration of DHEA to ovarectomized rats; cited from earlier work
[3] = tested on: systemic lupus erythematous (SLE) patients; assay: Clinical trial data, SLE patients treated with DHEA, BMD; assay type: in vivo, human; conditions: DHEA 200 mg daily, alone or in combination with prednisone
Description: Its role in fetal physiology is poorly understood, but it is thought to serve as a precursor for other steroids, leading to androgen and estrogenic steroids. […] However, the administration of DHEA to humans to prevent bone loss or increase bone density is not a recognized treatment for osteoporosis/osteopenia by the medical community.

[4] = tested on: postmenopausal women with low bone mass; conditions: cited from earlier work
[5] = tested on: Postmenopausal women with osteoporosis; conditions: cited from earlier work
[6] = tested on: spine bone mineral density (BMD); conditions: analysis of 16 studies; chronic calcitonin treatment; cited from earlier work

C[C@]12CC[C@H](O)CC1=CC[C@@H]1[C@@H]2CC[C@]2(C)C(=O)CC[C@@H]12 [DHEA form I, dehydroepiandrosterone]
stability [1]: highly stable under ambient conditions

C[C@]12CC[C@H](O)CC1=CC[C@@H]1[C@@H]2CC[C@]2(C)C(=O)CC[C@@H]12 [DHEA form II, dehydroepiandrosterone]
stability [1]: stable under ambient conditions | rate of absorption [2]: rapid rate of absorption (greater than the form I polymorph)

C[C@]12CC[C@H](O)CC1=CC[C@@H]1[C@@H]2CC[C@]2(C)C(=O)CC[C@@H]12 [DHEA, dehydroepiandrosterone]
bone density (ovarectomized rats): increased bone density | improvement of BMD [3]: only slight improvement of BMD

NCCCC(O)(P(=O)(O)O)P(=O)(O)O [alendronate]
increases in BMD compared with calcitonin ([4]; alendronate 10 mg, LS and HT at 6 and 12 months (p<0.001), FN at 12 months (p=0.003)): significantly greater increases in BMD than did calcitonin | increases in BMD compared with calcitonin ([5]; alendronate 10 mg, LS and HT at 6 and 12 months (p<0.001), FN at 12 months (p=0.001)): significantly greater increases in BMD than did calcitonin

calcitonin
BMD changes compared with placebo ([4]; calcitonin 200 IU daily, LS, HT or FN at 6 or 12 months): not statistically different from placebo | increases in BMD in total femur and lumbar spine ([4]; up to 1 year of therapy, calcitonin 200 IU daily): only modest increases in BMD | BMD changes compared with placebo at FN ([5]; calcitonin 200 IU daily, FN at 6 (p=0.003) and 12 months (p=0.008)): statistically different from placebo | BMD changes compared with placebo at LS or HT ([5]; calcitonin 200 IU daily, LS or HT at 6 or 12 months): not significantly different | mean increase in spine bone mineral density (BMD) [6]: 1.97%
